According to patent publication US20250134848A1, “METHOD OF ADMINISTRATION OF […] THE INDUCTION OF TUMOR ASSOCIATED ANTIGENS” (BryoLogyx Inc., priority 2022, published 2025):

Columns and labels:
[1] = test system: CD22; assay: CD22 expression in human PBMC, antibody binding capacity by flow cytometry; assay type: cell-based; settings: FIG. 2
Experimental: (§1) The ability of bryostatin-1 to promote antigen expression was evaluated in vitro. Human peripheral blood mononuclear cells (PBMC) were cultured according to previously published methods (Ramakrishna et al., 2019). Briefly, cells were washed and then treated with either bryostatin-1 (1 nM) or DMSO (vehicle control) for different times as indicated, ranging from 45 min to 24 hrs. Antibody binding capacity (ABC) was measured by flow cytometry (NCI flow lab); and plotted (FIGS. 1 and 2), either directly or as fold change over DMSO/vehicle control.

[2] = test system: CD19; assay: CD19 expression in human PBMC, antibody binding capacity by flow cytometry; assay type: cell-based; settings: FIG. 1
Experimental: as §1

[3] = test system: CD22; settings: B-cell tumors such as ALL and CLL; cited from earlier work
[4] = test system: CD19 and CD22; assay: Changes in expression of CD19 and CD22 in tumor cell lines and human cells after varying exposure times; assay type: cell-based
Experimental: We have shown that short exposure to bryostatin-1 in vitro is sufficient to elevate tumor-associated antigen expression. In experiments performed on numerous tumor cell lines and human cells, bryostatin-1 was administered for varying periods of time, ranging from 45 min to 24 hrs, and changes in the expression of CD19 and CD22 were measured. […] This elevation took time to become evident and was maximal at 72 h.

[5] = test system: tumor associated antigen expression; settings: animal experiments; cited from earlier work
[6] = test system: antigen expression; settings: FIGS. 3A and 3B; Ramakrishna et al. 2019; cited from earlier work
[7] = 1 nM, 45 min vs 3 hrs or 24 hrs
[8] = bryostatin-1 1 nM for 45 min, 3 hrs or 24 hrs

Compound: CCC/C=C/C=C/C(=O)O[C@H]1/C(=C/C(=O)OC)C[C@H]2C[C@H]([C@@H](C)O)OC(=O)C[C@H](O)C[C@@H]3C[C@H](OC(C)=O)C(C)(C)[C@](O)(C[C@@H]4C/C(=C/C(=O)OC)C[C@H](/C=C/C(C)(C)[C@]1(O)O2)O4)O3 [bryostatin-1]
- elevation of CD22 after 45 min incubation compared with longer incubations [1, 7]: same elevation in antigens as longer incubations
- expression of CD22 [1, 8]: increases in expression of CD22
- elevation of CD19 after 45 min incubation compared with longer incubations [2, 7]: same elevation in antigens as longer incubations
- expression of CD19 [2, 8]: increases in expression of CD19
- cell-surface expression of CD22 [3]: increase cell-surface expression of CD22
- time at which elevation of antigen expression was maximal ([4]; exposure 45 min to 24 hrs): 72 h
- increase in antigen expression after short exposure (45 min) compared with 3 h or 24 h exposure ([4]; tumor cell lines and human cells, in vitro): same level of increase in antigen expression as 3 h or 24 h exposure
- tumor associated antigen expression after a single intraperitoneal administration [5]: able to induce an elevation of tumor associated antigen expression
- time for which the increase in antigen expression remains elevated [6]: 7 days
